“And” between values parts separate entries of the source, which are not always exact repeats. Equal entries are not always repeated.
Test system: 598228-144-R-J1-PDC complex spheroids, viability
Assay: Anticancer human tumor 598228-144-R-J1-PDC patient-derived serous endometrial adenocarcinoma cell line growth inhibition [CLK]
Details: for viability, T/C: stronger effect = lower value; active = viability on the fitted dose curve at most 10% of control; inactive = the rest
Source text: A high-throughput screen of multi-cell type tumor spheroids was designed to identify active combinations of […] and targeted small molecules. Complex spheroids include a stromal component modeled by human endothelial cells (HUVEC) and fibroblasts modeled by human mesenchymal stem cells (MSCs). The concentration ranges selected for each drug and investigational agent were based upon clinically achievable concentrations if the clinical Cmax of the agent was known.
Compounds. The drugs and investigational agents: cirtuvivint (SM08502; NSC835563), CC-671 (NSC850746), vemurafenib (NSC761431), tapotoclax (NSC804041), sotorasib (NSC818433), adagrasib (NSC831453), MRTX-1133 (NSC836407), BAY2416964 (NSC825713), copanlisib (NSC816437), inavolisib (NSC800729), abemaciclib (NSC768073), osimertinib (NSC779217), entinostat (NSC756642), eltanexor (KPT-8602, NSC794443), venetoclax (NSC766270), ceralasertib (NSC777638), bortezomib (NSC756655), olaparib (NSC753686), talazoparib (NSC767125), alisertib (NSC759677), peposertib (NSC802822), gemcitabine (NSC613327), 5-fluorouracil (NSC19893), SN-38 (NSC673596), oxaliplatin (NSC266046), paclitaxel (NSC125973), and doxorubicin (NSC123127), were obtained from the National Cancer Institute (NCI) Developmental Therapeutics Program Chemical Repository. The FDA-approved anticancer drug set is available from the Developmental Therapeutics Program at https://dtp.cancer.gov/organization/dscb/obtaining/available plates.htm. […] The stock solutions were prepared in dimethyl sulfoxide (DMSO, Sigma-Aldrich, St. Louis, MO, cat. D2650), except for the platinum complexes which were prepared in saline (Quality Biological, Gaithersburg, MD, cat. 114-055-101), at 800-fold the tested concentration and stored at -70 degrees C prior to their use. All drugs and investigational agents were tested over a range starting from a high concentration at or near the clinical Cmax and decreasing in half-log increments. If the clinical Cmax for an agent had not been determined, the highest concentration tested was 10 microM.
Cell Culture. All cells were maintained in an incubator at 37 degrees C and 5% CO2 with 95% humidity. The PDC lines were cultured according to standard operating procedures established by the NCI PDMR. Briefly, all PDCs were thawed and cultured in Matrigel-coated flasks prepared with a working solution of 1X Ham's F-12 nutrient mix, without supplementation (Invitrogen, Waltham, MA, cat. 11765054), 100 U/mL penicillin-streptomycin (Invitrogen, cat. 15140122), and 2.5% Matrigel (Corning Inc., Corning, NY, cat. 354248) for the first three passages. The 947758-054-R-J2-PDC line was cultured in 6B/Colon 1A media, which includes advanced DMEM/F-12 (Thermo Fisher Scientific, cat. 12634028), 10 mM HEPES (Thermo Fisher Scientific, cat. 15630080), 1X GlutaMAX supplement (Thermo Fisher Scientific, cat. 35050061), 0.1 mg/mL primocin (InvivoGen, cat. ant-pm-2), 10% defined fetal bovine serum, heat inactivated (HyClone Laboratories Inc., cat. SH30070.03HI), 1.25 mM N-Acetyl-L-cysteine (Sigma-Aldrich, cat. A9165), 10 mM nicotinamide (Sigma-Aldrich, cat. N0636), 1X B-27 supplement (Thermo Fisher Scientific, cat. 17504044), 1X N-2 supplement (Thermo Fisher Scientific, cat. 17502048), and 10 microM Y-27632 dihydrochloride (Tocris Bioscience, cat. 1254). The 876862-298-R-J1-PDC was cultured in 6E media, which includes all 6B/Colon 1A media components plus 50% L-WRN conditioned media (ATCC, cat. CRL-3276), 50 ng/mL recombinant human EGF recombinant protein (hEGF; Thermo Fisher Scientific, cat. PHG0311), 10 ng/mL recombinant human fibroblast growth factor 10 (hGFG-10; PeproTech, cat. 100-26), 1 ng/mL recombinant human fibroblast growth factor 2 (hFGF-2; PeproTech, cat. 100-18B), and 1 µM prostaglandin E2 (PGE2; Tocris, cat. 2296). The 227483-062-R1-J1-PDC line was cultured in Panc media, containing all 6E components except hFGF-2, with the addition of 500 nM SB-431542 (Selleckchem, cat. S1067) and 10 nM gastrin (Tocris, cat. 3006). […]

[1] = curve of first compound, second compound 0.0316 µM
[2] = curve of first compound, second compound 0.1 µM
[3] = curve of first compound, second compound 0.316 µM
[4] = curve of first compound, second compound 1 µM
[5] = curve of first compound, second compound 3.16 µM
[6] = curve of first compound, second compound 10 µM
[7] = second compound 0.0316 µM, first compound 0.0316 µM
[8] = second compound 0.0316 µM, first compound 0.1 µM
[9] = second compound 0.0316 µM, first compound 0.316 µM
[10] = second compound 0.0316 µM, first compound 1 µM
[11] = second compound 0.0316 µM, first compound 3.16 µM
[12] = second compound 0.0316 µM, first compound 10 µM
[13] = second compound 0.1 µM, first compound 0.0316 µM
[14] = second compound 0.1 µM, first compound 0.1 µM
[15] = second compound 0.1 µM, first compound 0.316 µM
[16] = second compound 0.1 µM, first compound 1 µM
[17] = second compound 0.1 µM, first compound 3.16 µM
[18] = second compound 0.1 µM, first compound 10 µM
[19] = second compound 0.316 µM, first compound 0.0316 µM
[20] = second compound 0.316 µM, first compound 0.1 µM
[21] = second compound 0.316 µM, first compound 0.316 µM
[22] = second compound 0.316 µM, first compound 1 µM
[23] = second compound 0.316 µM, first compound 3.16 µM
[24] = second compound 0.316 µM, first compound 10 µM
[25] = second compound 1 µM, first compound 0.0316 µM
[26] = second compound 1 µM, first compound 0.1 µM
[27] = second compound 1 µM, first compound 0.316 µM
[28] = second compound 1 µM, first compound 1 µM
[29] = second compound 1 µM, first compound 3.16 µM
[30] = second compound 1 µM, first compound 10 µM
[31] = second compound 3.16 µM, first compound 0.0316 µM
[32] = second compound 3.16 µM, first compound 0.1 µM
[33] = second compound 3.16 µM, first compound 0.316 µM
[34] = second compound 3.16 µM, first compound 1 µM
[35] = second compound 3.16 µM, first compound 3.16 µM
[36] = second compound 3.16 µM, first compound 10 µM
[37] = second compound 10 µM, first compound 0.0316 µM
[38] = second compound 10 µM, first compound 0.1 µM
[39] = second compound 10 µM, first compound 0.316 µM
[40] = second compound 10 µM, first compound 1 µM
[41] = second compound 10 µM, first compound 3.16 µM
[42] = second compound 10 µM, first compound 10 µM
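Also: spheroids exposed to compounds for seven days before readout.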
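For viability, T/C in this document: 100% = DMSO vehicle control wells.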

CN1CCN(c2cc(C(=O)Nc3cc4cc(-c5cnn(C)c5)ccc4cn3)ccn2)CC1
inactive: viability, T/C (compound 0.316 µM) 17.4% [middle of 11 runs]
216 nM [middle of 10 runs]: IC50 (compound alone, run of 09/18/2023)
active: viability, T/C (compound 1 µM) 3.28% [middle of 12 runs] | viability, T/C (compound 3.16 µM) 2.39% [middle of 11 runs] | viability, T/C (compound 10 µM) 1% [middle of 11 runs]

COc1ccc([C@@H](O)c2cc(-c3ncnc4cc(N5CCOCC5)ccc34)c(F)cc2Cl)nn1
3550 nM and 4190 nM: IC50 (curve of compound)
inactive: viability, T/C (compound 0.0316 µM) 96.2% and 103% | viability, T/C (compound 0.1 µM) 93.5% and 88.3% | viability, T/C (compound 0.316 µM) 83.5% and 94.8% | viability, T/C (compound 1 µM) 63.7% and 76.9% | viability, T/C (compound 3.16 µM) 54.9% and 55.7% | viability, T/C (compound 10 µM) 34.8% and 31.7%

COc1cccc2c1C(=O)c1c(O)c3c(c(O)c1C2=O)CC(O)(C(=O)CO)CC3OC1CC(N)C(O)C(C)O1 (stereo not given)
266 nM and 257 nM: IC50 (curve of compound)
inactive: viability, T/C (compound 0.0316 µM) 75.6% and 69% | viability, T/C (compound 0.1 µM) 76.5% and 74% | viability, T/C (compound 0.316 µM) 43.8% and 43.9% | viability, T/C (compound 1 µM) 14% and 12.3%
active: viability, T/C (compound 3.16 µM) 0.38% and 0.72% | viability, T/C (compound 10 µM) 0.37% and 0.77%

C=CC(=O)N1CCN(c2nc(=O)n(-c3c(C)ccnc3C(C)C)c3nc(-c4c(O)cccc4F)c(F)cc23)C(C)C1 (stereo not given) + CN1CCN(c2cc(C(=O)Nc3cc4cc(-c5cnn(C)c5)ccc4cn3)ccn2)CC1
< 31.6 nM: IC50 [3] | IC50 [4] | IC50 [5] | IC50 [6]
inactive: viability, T/C [7] 128% | viability, T/C [8] 130% | viability, T/C [9] 121% | viability, T/C [10] 138% | viability, T/C [11] 159% | viability, T/C [12] 128% | viability, T/C [13] 128% | viability, T/C [14] 122% | viability, T/C [15] 132% | viability, T/C [16] 160% | viability, T/C [17] 162% | viability, T/C [18] 121% | viability, T/C [19] 20.6% | viability, T/C [20] 21.9% | viability, T/C [21] 20.1% | viability, T/C [22] 24.2% | viability, T/C [23] 25.9% | viability, T/C [24] 18.4%
> 10000 nM: IC50 [1] | IC50 [2]
active: viability, T/C [25] 1.67% | viability, T/C [26] 1.68% | viability, T/C [27] 2.05% | viability, T/C [28] 2.47% | viability, T/C [29] 2.38% | viability, T/C [30] 1.47% | viability, T/C [31] 1.63% | viability, T/C [32] 3.15% | viability, T/C [33] 2.36% | viability, T/C [34] 2.16% | viability, T/C [35] 3.18% | viability, T/C [36] 4.16% | viability, T/C [37] 0.96% | viability, T/C [38] 1.09% | viability, T/C [39] 2.11% | viability, T/C [40] 1.48% | viability, T/C [41] 4.19% | viability, T/C [42] 1.94%

CCCS(=O)(=O)Nc1ccc(F)c(C(=O)c2c[nH]c3ncc(-c4ccc(Cl)cc4)cc23)c1F + CN1CCN(c2cc(C(=O)Nc3cc4cc(-c5cnn(C)c5)ccc4cn3)ccn2)CC1
> 10000 nM: IC50 [1] | IC50 [2]
active: viability, T/C [25] 1.62% | viability, T/C [26] 1.8% | viability, T/C [27] 2.03% | viability, T/C [28] 1.5% | viability, T/C [29] 2.94% | viability, T/C [30] 4.26% | viability, T/C [31] 2.08% | viability, T/C [32] 6.53% | viability, T/C [33] 1.71% | viability, T/C [34] 2.24% | viability, T/C [35] 5.08% | viability, T/C [36] 7.6% | viability, T/C [37] 1.08% | viability, T/C [38] 0.79% | viability, T/C [39] 1.22% | viability, T/C [40] 1.42% | viability, T/C [41] 3.13% | viability, T/C [42] 6.03%
inactive: viability, T/C [7] 114% | viability, T/C [8] 136% | viability, T/C [9] 119% | viability, T/C [10] 145% | viability, T/C [11] 115% | viability, T/C [12] 71% | viability, T/C [13] 132% | viability, T/C [14] 144% | viability, T/C [15] 111% | viability, T/C [16] 131% | viability, T/C [17] 112% | viability, T/C [18] 72.5% | viability, T/C [19] 20.5% | viability, T/C [20] 23.8% | viability, T/C [21] 19.9% | viability, T/C [22] 15.7% | viability, T/C [23] 17.3% | viability, T/C [24] 15.5%
< 31.6 nM: IC50 [3] | IC50 [4] | IC50 [5] | IC50 [6]

COC1C=CCC(C)C(C)S(=O)(=O)NC(=O)c2ccc3c(c2)N(CC2CCC21)CC1(CCCc2cc(Cl)ccc21)CO3 (stereo not given) + CN1CCN(c2cc(C(=O)Nc3cc4cc(-c5cnn(C)c5)ccc4cn3)ccn2)CC1
< 31.6 nM: IC50 [3] | IC50 [4] | IC50 [5] | IC50 [6]
5350 nM: IC50 [2]
active: viability, T/C [25] 1.74% | viability, T/C [26] 1.81% | viability, T/C [27] 3.02% | viability, T/C [28] 1.14% | viability, T/C [29] 1.71% | viability, T/C [30] 4.93% | viability, T/C [31] 1.85% | viability, T/C [32] 3.92% | viability, T/C [33] 1.47% | viability, T/C [34] 1.24% | viability, T/C [35] 2.51% | viability, T/C [36] 3.08% | viability, T/C [37] 0.94% | viability, T/C [38] 0.82% | viability, T/C [39] 0.72% | viability, T/C [40] 0.85% | viability, T/C [41] 2.37% | viability, T/C [42] 3.73%
inactive: viability, T/C [7] 128% | viability, T/C [8] 107% | viability, T/C [9] 85.1% | viability, T/C [10] 75% | viability, T/C [11] 69.2% | viability, T/C [12] 29.5% | viability, T/C [13] 122% | viability, T/C [14] 111% | viability, T/C [15] 86% | viability, T/C [16] 76.9% | viability, T/C [17] 65.5% | viability, T/C [18] 36.4% | viability, T/C [19] 15.7% | viability, T/C [20] 18.8% | viability, T/C [21] 16.8% | viability, T/C [22] 16.6% | viability, T/C [23] 20.5% | viability, T/C [24] 18.9%
4710 nM: IC50 [1]
